In patent US8946268B2, “Modulators of HEC1 activity and methods therefor” (Taivex Therapeutics, Inc., priority 2010, dated 2015):

How the values were obtained:
Assay type in all cases: cell-based
K562 = test: Antiproliferative activity (MTS assay), K562; conditions: K562 cells
Protocol: (§1) Antiproliferative effect is expressed as IC50 values in microMolar final concentration.
(§2) Cells were grown at 37° C. in a humidified atmosphere with 5% CO2 and 95% air. Cells were seeded in 96 well tissue culture plates.
(§3) Compound treatment started after overnight incubation of cells (TO). […] Compound was added to the plate in triplicate wells, and the plates were then incubated for 96 hours. DMSO (compounds diluents) was also included and added to the plate in control wells. Cell viability was then determined by MTS assay using CellTiter 96® AQueous non-radioactive cell proliferation assay system (Promega). A plate reader (Molecular Devices, Vmax) was used to read the optical densities, and the results were used to deduce concentration-response curves. […] The results were analyzed using linear regression software (GraphPad Prism 5; GraphPad Software Inc.).
(§4) The GI50 values (growth inhibitory activity) were determined to emphasize on the correction for the cell count at time zero; thus, the % inhibition of test drug were: [1−(T−T0)/(C−T0)]×100; and these value were used to plot the concentration-response curves, and then analyzed with linear regression software (GraphPad Prism 5).

MDA-MB-468 = test: Antiproliferative activity (MTS assay), MDA-MB-468; conditions: MDA-MB-468 cells
Protocol: as §1, §2, §3, §4

MDA-MB-231 = test: Antiproliferative activity (MTS assay), MDA-MB-231; conditions: MDA-MB-231 cells
Protocol: as §1, §2, §3, §4

Hela = test: Antiproliferative activity (MTS assay), Hela; conditions: Hela cells
Protocol: as §1, §2, §3, §4

Structure (SMILES) | IC50 (K562; Homo sapiens, K562, 96 h) [nM] | IC50 (MDA-MB-468; Homo sapiens, MDA-MB-468, 96 h) [nM] | IC50 (MDA-MB-231; Homo sapiens, MDA-MB-231, 96 h) [nM] | IC50 (Hela; Homo sapiens, HeLa, 96 h) [nM] | IC50 (K562; 96 hours) [nM] | IC50 (MDA-MB-468; 96 hours) [nM] | IC50 (MDA-MB-231; 96 hours) [nM] | IC50 (Hela; 96 hours) [nM]
COc1c(F)cc(-c2csc(NC(=O)c3ccncc3)n2)cc1F [Compound 62] | 7160 | 5450 | 4000 | > 10000 | – | – | – | –
COc1ccc(-c2csc(NC(=O)c3ccnc(Cl)c3)n2)cc1F [Compound 63] | > 10000 | > 10000 | > 10000 | > 10000 | – | – | – | –
Cc1cc(C)c(-c2csc(NC(=O)c3ccnc(Cl)c3)n2)c(C)c1 [Compound 64] | 930 | 980 | 620 | 840 | – | – | – | –
CCOc1cc(C)c(-c2csc(NC(=O)c3ccnc(Cl)c3)n2)c(C)c1 [Compound 66] | 210 | 240 | 110 | 200 | – | – | – | –
COc1cc(C)c(-c2csc(NC(=O)Nc3ccncc3)n2)c(C)c1 [Compound 67] | 820 | 780 | 570 | > 10000 | – | – | – | –
CC(=O)Nc1cc(C)c(-c2csc(NC(=O)Nc3ccncc3)n2)c(C)c1 [Compound 68] | 4960 | 3610 | 4240 | 5130 | – | – | – | –
CCOc1cc(C)c(-c2csc(NC(=O)c3ccnc(F)c3)n2)c(C)c1 [Compound 70] | 160 | 210 | 110 | 30 | – | – | – | –
COc1cc(C)c(-c2csc(NC(=O)c3cc[n+]([O-])cc3)n2)c(C)c1 [Compound 72] | 5400 | 4810 | 4280 | 2700 | – | – | – | –
CC(C)c1cc(C(C)C)c(-c2csc(NC(=O)c3ccncc3)n2)c(C(C)C)c1 [Compound 73] | > 10000 | > 10000 | > 10000 | > 10000 | – | – | – | –
CC(=O)Nc1cc(C)c(-c2csc(NC(=O)c3ccncc3)n2)c(C)c1 [Compound 74] | 2130 | 1270 | 1460 | 1590 | – | – | – | –
COc1cc(C)c(-c2csc(NC(=O)c3cncs3)n2)c(C)c1 [Compound 75] | 3700 | 4340 | 2370 | 2930 | – | – | – | –
O=C(Nc1nc(-c2c(F)cc(F)cc2F)cs1)c1ccncc1 [Compound 76] | 940 | 1250 | 540 | 1120 | – | – | – | –
Cc1cc(C)c(-c2csc(NC(=O)c3ccncc3F)n2)c(C)c1 [Compound 77] | 2820 | 2780 | 1220 | 2290 | – | – | – | –
Cc1cc(C)c(-c2csc(NC(=O)c3ccnc(Cl)c3)n2)c(C)c1 [Compound 81] | – | – | – | – | 790 | 820 | 720 | 860
Cc1cc(C)c(-c2csc(NC(=O)c3ccnc(N4CCOCC4)c3)n2)c(C)c1 [Compound 83] | 2230 | 4170 | 3510 | 2370 | – | – | – | –
Cc1cc(C)c(-c2csc(NC(=O)c3ccnc(N4CCN(C)CC4)c3)n2)c(C)c1 [Compound 84] | > 10000 | 28800 | > 10000 | > 10000 | – | – | – | –
COc1cc(C(=O)Nc2nc(-c3c(C)cc(C)cc3C)cs2)ccn1 [Compound 86] | 690 | 2510 | 770 | 1720 | – | – | – | –
COc1cc(C(=O)Nc2nc(-c3c(C)cc(C)cc3C)cs2)cc(Cl)n1 [Compound 87] | > 10000 | > 10000 | > 10000 | > 10000 | – | – | – | –
Cc1cc(C)c(-c2csc(NC(=O)c3cc(Cl)nc(Cl)c3)n2)c(C)c1 [Compound 88] | 8300 | 15500 | 7980 | > 10000 | – | – | – | –
CC(=O)Nc1cc(C(=O)Nc2nc(-c3c(C)cc(C)cc3C)cs2)ccn1 [Compound 89] | > 10000 | 8200 | > 10000 | > 10000 | – | – | – | –
Cc1cc(C)c(-c2csc(NC(=O)c3cc(F)nc(F)c3)n2)c(C)c1 [Compound 90] | 990 | 1220 | 800 | 1150 | – | – | – | –
Cc1cc(C)c(-c2csc(NC(=O)c3ccnc(N4CCCCC4)c3)n2)c(C)c1 [Compound 91] | 1400 | 4660 | 6060 | > 10000 | – | – | – | –
Cc1cc(C)c(-c2csc(NC(=O)c3ccnc(N(C)C)c3)n2)c(C)c1 [Compound 92] | 450 | 3290 | 2210 | > 10000 | – | – | – | –
Cc1cc(C)c(-c2csc(NC(=O)Cc3ccncc3)n2)c(C)c1 [Compound 93] | 380 | 300 | 310 | 620 | – | – | – | –
Cc1cc(OCC(C)O)cc(C)c1-c1csc(NC(=O)c2ccncc2)n1 (stereo not shown) [Compound 94] | 230 | 390 | 300 | 230 | – | – | – | –

Next, values leading:

IC50 (K562; Homo sapiens, K562, 96 h) [nM] | IC50 (MDA-MB-468; Homo sapiens, MDA-MB-468, 96 h) [nM] | IC50 (MDA-MB-231; Homo sapiens, MDA-MB-231, 96 h) [nM] | IC50 (Hela; Homo sapiens, HeLa, 96 h) [nM] | IC50 (K562; 96 hours) [nM] | IC50 (MDA-MB-468; 96 hours) [nM] | IC50 (MDA-MB-231; 96 hours) [nM] | IC50 (Hela; 96 hours) [nM] | Structure (SMILES)
9110 | 3110 | 8300 | 3260 | – | – | – | – | Cc1cc(OCC(O)CO)cc(C)c1-c1csc(NC(=O)c2ccncc2)n1 (stereo not shown) [Compound 97]
20 | 40 | 20 | 40 | – | – | – | – | COc1ccc(Oc2cc(C)c(-c3csc(NC(=O)c4ccnc(F)c4)n3)c(C)c2)cc1 [Compound 98]
50 | 130 | 70 | 110 | – | – | – | – | Cc1cc(Oc2ccc3c(c2)OCO3)cc(C)c1-c1csc(NC(=O)c2ccncc2)n1 [Compound 101]
2480 | 2170 | 1110 | > 10000 | – | – | – | – | Cc1cc(C)c(-c2csc(NC(=O)/C=C/c3cccnc3)n2)c(C)c1 [Compound 103]
2440 | 7640 | 1100 | > 10000 | – | – | – | – | Cc1cc(C)c(-c2csc(NC(=O)c3ccc4cn[nH]c4c3)n2)c(C)c1 [Compound 104]
> 10000 | 8020 | > 10000 | > 10000 | – | – | – | – | Cc1cc(C)c(-c2csc(NC(=O)c3ccc4[nH]ncc4c3)n2)c(C)c1 [Compound 105]
> 10000 | > 10000 | 4950 | > 10000 | – | – | – | – | Cc1cc(C)c(-c2csc(NC(=O)c3ccc4[nH]nnc4c3)n2)c(C)c1 [Compound 106]
240 | 280 | 260 | 310 | – | – | – | – | COCCOc1cc(C)c(-c2csc(NC(=O)c3ccncc3)n2)c(C)c1 [Compound 109]
100 | 130 | 90 | 110 | – | – | – | – | COCCCOc1cc(C)c(-c2csc(NC(=O)c3ccncc3)n2)c(C)c1 [Compound 110]
180 | 330 | 250 | 330 | – | – | – | – | COc1ccccc1Oc1cc(C)c(-c2csc(NC(=O)c3ccncc3)n2)c(C)c1 [Compound 111]
230 | 550 | 300 | 400 | – | – | – | – | Cc1cc(I)cc(C)c1-c1csc(NC(=O)c2ccncc2)n1 [Compound 114]
140 | 220 | 170 | 230 | – | – | – | – | Cc1cc(Sc2ccccc2)cc(C)c1-c1csc(NC(=O)c2ccncc2)n1 [Compound 115]
